# Experimental data taken from patent publication US9549917B2, “Heterocyclic-substituted benzofuran derivatives and methods of use thereof for the treatment of viral diseases” (priority 2011, dated 2017).
# Tests used:
# [1] = tested on: HCV replicon genotype 1b; test: HCV replicon assay, genotype 1b (cell ELISA for NS3/4A); assay type: cell-based; settings: Hepatitis C virus, 96 h, read-out: 1b IC50 (nM)
# Experimental: (§1) Measurement of inhibition by compounds was performed using the HCV replicon system. Several different replicons encoding different HCV genotypes or mutations were used. In addition, potency measurements were made using different formats of the replicon assay, including different ways of measurements and different plating formats. See Jan M. Vrolijk et al., A replicons-based bioassay for the measurement of interferons in patients with chronic hepatitis C, 110 J. V[…] 201 (2003); Steven S. Carroll et al., Inhibition of Hepatitis C Virus RNA Replication by 2′-Modified Nucleoside Analogs, 278(14) J. BIOLOGICAL CHEMISTRY 11979 (2003). However, the underlying principles are common to all of these determinations, and are outlined below.
# (§2) Stable neomycin phosphotransferase encoding replicons-harboring cell lines were used, so all cell lines were maintained under G418 selection prior to the assay. Potency was determined using a cell ELISA assay with an antibody to the replicons encoded NS3/4a protease. See Caterina Trozzi et al., In Vitro Selection and Characterization of Hepatitis C Virus Serine Protease Variants Resistant to an Active-Site Peptide Inhibitor, 77(6) J. Virol. 3669 (2003). To initiate an assay, replicon cells were plated in the presence of a dilution series of test compound in the absence of G418. Typically, the assays were performed in a 96-well plate formate for manual operation, or a 384-well plate format for automated assay. Replicon cells and compound were incubated for 96 hours. At the end of the assay, cells were washed free of media and compound, and the cells were then lysed. RNA was quantified indirectly through detection of replicon-encoded NS3/4A protein levels, through an ELISA-based assay with an antibody specific for NS3/4A. IC50 determinations were calculated as a percentage of a DMSO control by fitting the data to a four-parameter fit function and the data obtained is provided in the table below.
# (§3) Data for selected compounds of the present invention was obtained for genotypes 1a and 1b using this method and is provided in the table below: […]
# [2] = tested on: HCV replicon genotype 1a; test: HCV replicon assay, genotype 1a (cell ELISA for NS3/4A); assay type: cell-based; settings: Hepatitis C virus, 96 h, read-out: 1a IC50 (nM)
# Experimental: as §1, §2, §3
Compound,IC50 [1] [nM],IC50 [2] [nM]
CNC(=O)c1c(-c2ccc(F)cc2)oc2cc(N(C)S(C)(=O)=O)c(-c3cc(-c4cc5c(F)cccc5[nH]4)nc(N)n3)cc12 [Compound 272],4.4,4.2
CNC(=O)c1c(-c2ccc(F)cc2)oc2cc(N(C)S(C)(=O)=O)c(-c3cnc(OC)c(-c4cc5cccc(F)c5[nH]4)n3)cc12 [Compound 226],7.2,3.4
CNC(=O)c1c(-c2ccc(F)cc2)oc2cc(N(C)S(C)(=O)=O)c(-c3nc(-c4cc5ccccc5[nH]4)c(OC)cc3OC)cc12 [Compound 224],31,99
CNC(=O)c1c(-c2ccc(F)cc2)oc2cc(N(CC(F)F)S(C)(=O)=O)c(-c3cc(-c4nc5ncccc5o4)ccn3)cc12 [Compound 170],5.1,27
CNC(=O)c1c(-c2ccc(F)cc2)oc2cc(N(C)S(C)(=O)=O)c(-c3cc(-c4cc5c(C#N)cccc5[nH]4)cnn3)cc12 [Compound 230],1.9,1.4
CNC(=O)c1c(-c2ccc(F)cc2)oc2cc(N(C)S(C)(=O)=O)c(-c3cnnc(-c4cc5ncccc5[nH]4)c3)cc12 [Compound 286],5,17
CNC(=O)c1c(-c2ccc(F)cc2)nn2cc(N(C)S(C)(=O)=O)c(-c3nccc(-c4cc5ccccc5[nH]4)n3)cc12 [Compound 210],4.7,11
CNC(=O)c1c(-c2ccc(F)cc2)oc2cc(N(C)S(C)(=O)=O)c(-c3ccnc(-c4cc5ccccc5[nH]4)c3)cc12 [Compound 109],1,0.4
"CNC(=O)c1c(-c2ccc(F)cc2)oc2cc(N(C)S(C)(=O)=O)c(-c3cc(-c4cc5ccccc5[nH]4)ncn3)cc12 [Compound 108, 5-(6-(1H-indol-2-yl)pyrimidin-4-yl)-2-(4-fluorophenyl)-N-methyl-6-(N-methylmethylsulfonamido)benzofuran-3-carboxamide]",1.2,0.7
CNC(=O)c1c(-c2ccc(F)cc2)oc2cc(N(C)S(C)(=O)=O)c(-c3cc(-c4cc5c(F)cccc5[nH]4)ncc3Cl)cc12 [Compound 292],13,12
CNC(=O)c1c(-c2ccc(F)cc2)oc2cc(N(C)S(C)(=O)=O)c(-c3cc(-c4cc5c(F)cccc5[nH]4)ncc3-c3cc4c(F)cccc4[nH]3)cc12 [Compound 290],10,9.8
CNC(=O)c1c(-c2ccc(F)cc2)oc2cc(N(C)S(C)(=O)=O)c(-c3cnnc(-c4cc5c(F)cccc5n4CCO)c3)cc12 [Compound 277],6.7,7.4
CNC(=O)c1c(-c2ccc(F)cc2)oc2cc(N(C)S(C)(=O)=O)c(-c3cc(-c4nc5ccccc5o4)cnn3)cc12 [Compound 271],10,14
CNC(=O)c1c(-c2ccc(F)cc2)oc2cc(N(C)S(C)(=O)=O)c(-c3cnnc(N4Cc5cccc(F)c5C4)c3)cc12 [Compound 280],1.4,1.2
CNC(=O)c1c(-c2ccc(F)cc2)oc2cc(N(C)S(C)(=O)=O)c(-c3cncc(-c4cc5c(F)cccc5[nH]4)n3)cc12 [Compound 121],1.2,0.8
CNC(=O)c1c(-c2ccc(F)cc2)oc2cc(N(C)S(C)(=O)=O)c(-c3cc(-c4cc5c(F)cccc5[nH]4)ncn3)cc12 [Compound 119],1.5,0.7
CNC(=O)c1c(-c2ccc(F)cc2)oc2cc(N(C)S(C)(=O)=O)c(-c3ccc(OC)c(-c4cc5cccc(C#N)c5[nH]4)n3)cc12 [Compound 208],7.2,27
CNC(=O)c1c(-c2ccc(F)cc2)oc2ccc(-c3cc(-c4cc5c(F)cccc5[nH]4)nnc3C)cc12 [Compound 270],36,42
CNC(=O)c1c(-c2ccc(F)cc2)oc2cc(N(C)S(C)(=O)=O)c(-c3cc(-c4cc5c(F)cccc5[nH]4)nnc3C)cc12 [Compound 268],6.1,5.3
CNC(=O)c1c(-c2ccc(F)cc2)oc2cc(N(C)S(C)(=O)=O)c(-c3ccc(O)c(-c4cc5c(C#N)nccc5[nH]4)n3)cc12 [Compound 231],47,339

Compound,IC50 [1] [nM],IC50 [2] [nM]
CNC(=O)c1c(-c2ccc(F)cc2)oc2cc(N(C)S(C)(=O)=O)c(-c3cncc(-c4nc5c(s4)CCCC5)c3)cc12 [Compound 82],1.1,0.8
CNC(=O)c1c(-c2ccc(F)cc2)oc2cc(N(C)S(C)(=O)=O)c(-c3cncc(-c4cc5cccc(F)c5[nH]4)n3)cc12 [Compound 139],0.8,0.8
CNC(=O)c1c(-c2ccc(F)cc2)oc2cc(N(C)S(C)(=O)=O)c(-c3cnnc(-c4cc5c(F)cccc5n4CCOC)c3)cc12 [Compound 279],3.2,2.5
CNC(=O)c1c(-c2ccc(F)cc2)oc2cc(N(C)S(C)(=O)=O)c(-c3cnnc(-c4cc5c(C#N)cccc5[nH]4)c3)cc12 [Compound 260],1.1,0.7
CNC(=O)c1c(-c2ccc(F)cc2)oc2cc(N(C)S(C)(=O)=O)c(-c3cnnc(-c4cc5c(F)cccc5[nH]4)c3)cc12 [Compound 259],2.6,1.1
CNC(=O)c1c(-c2ccc(F)cc2)oc2cc(N(C)S(C)(=O)=O)c(-c3cc(-c4cc5c(F)cccc5[nH]4)ncc3OC)cc12 [Compound 293],41,131
CNC(=O)c1c(-c2ccc(F)cc2)oc2cc(N(C)S(C)(=O)=O)c(-c3cc(-c4nc5c(F)cccc5o4)c(F)cn3)cc12 [Compound 13],1.4,0.7
CNC(=O)c1c(-c2ccc(F)cc2)oc2cc(N(CCCF)S(C)(=O)=O)c(-c3cncc(-c4cc5ccccc5[nH]4)c3)cc12 [Compound 244],4.7,2.7
CNC(=O)c1c(-c2ccc(F)cc2)oc2cc(N(C)S(C)(=O)=O)c(-c3ccnc(-c4nc5c(F)cccc5o4)c3)cc12 [Compound 9],1.3,0.6
CNC(=O)c1c(-c2ccc(F)cc2)oc2cc(N(C)S(C)(=O)=O)c(-c3cncc(-c4nc5c(F)cccc5o4)c3)cc12 [Compound 2],0.8,0.3
CNC(=O)c1c(-c2ccc(F)cc2)oc2cc(N(C)S(C)(=O)=O)c(-c3cc(-c4nc5c(o4)CCCC5(F)F)ccn3)cc12 [Compound 95],1.1,0.9
CNC(=O)c1c(-c2ccc(F)cc2)oc2cc(N(C)S(C)(=O)=O)c(-c3cnc(OC)c(-c4cc5c(C#N)cccc5[nH]4)n3)cc12 [Compound 225],7,4.7
CNC(=O)c1c(-c2ccc(F)cc2)oc2cc(N(C)S(C)(=O)=O)c(-c3cc(-c4cc5c(F)cccc5n4CCOC)cnn3)cc12 [Compound 278],14,37
CNC(=O)c1c(-c2ccc(F)cc2)oc2cc(N(C)S(C)(=O)=O)c(-c3cncc(-c4nc5c(s4)C4CCC5C4)c3)cc12 (stereo not drawn) [Compound 182],4.3,4.4
CNC(=O)c1c(-c2ccc(F)cc2)oc2cc(N(C)S(C)(=O)=O)c(-c3ccc(-c4nc5c(F)cccc5o4)s3)cc12 [Compound 157],1.5,0.9
CNC(=O)c1c(-c2ccc(F)cc2)oc2cc(N(C)S(C)(=O)=O)c(-c3cc(N4Cc5cccc(F)c5C4)ncc3OC)cc12 [Compound 294],22,54
CNC(=O)c1c(-c2ccc(F)cc2)oc2cc(N(C)S(C)(=O)=O)c(-c3cc(-c4[nH]c5ccccc5c4C)cnn3)cc12 [Compound 289],22,54
CNC(=O)c1c(-c2ccc(F)cc2)oc2cc(N(C)S(C)(=O)=O)c(-c3c[nH]c(=O)c(-c4nc5c(F)cccc5o4)c3)cc12 [Compound 159],1.3,0.8
CNC(=O)c1c(-c2ccc(F)cc2)oc2cc(N(C)S(C)(=O)=O)c(-c3cc(-c4cc5c(F)cccc5[nH]4)c(OC)nn3)cc12 [Compound 218],9.2,4.2
